Source: ChEMBL document CHEMBL3751844, “Novel juglone and plumbagin 5-O derivatives and their in vitro growth inhibitory activity against apoptosis-resistant cancer cells” (Bioorg Med Chem Lett, 2016)
Active and inactive are the calls of the source. The calls are words filed in the database; no cut-off is given here.

Tested on: not listed separately
Assay: Growth inhibition of human Hs683 cells by MTT assay
Assay type: functional, cell-based
Conditions: Hs 683

Going from CCCCCCCCCCCC(=O)Oc1cccc2c1C(=O)C=C(C)C2=O to CCCCCCCCCCCCCCCC(=O)Oc1cccc2c1C(=O)C=C(C)C2=O, the IC50 rises from 17 µM to 33 µM (1.9-fold).

Going from COc1cccc2c1C(=O)C=CC2=O to CCOc1cccc2c1C(=O)C=CC2=O, the IC50 rises from 6 µM to 23 µM (3.8-fold).

First: CC(C)=CCC/C(C)=C/COc1cccc2c1C(=O)C=CC2=O
Second: CC(C)=CCC/C(C)=C/COc1cccc2c1C(=O)C=C(C)C2=O
The IC50 of the first is 3-fold higher: 67 µM for the first, 22 µM for the second.

Going from C=CCOc1cccc2c1C(=O)C=CC2=O to C=CCOc1cccc2c1C(=O)C=C(C)C2=O, the IC50 falls from 19 µM to 3 µM (6.3-fold).

Compared with CCCCCCCCCCCCCCCC(=O)Oc1cccc2c1C(=O)C=CC2=O, CCCCCCCCCCCCCCCCCC(=O)Oc1cccc2c1C(=O)C=CC2=O is lower in IC50: over 100 µM for the first, 67 µM for the second.

First: O=C1C=CC(=O)c2c(O)cccc21 [JUGLONE]
Second: CC1=CC(=O)c2c(O)cccc2C1=O [PLUMBAGIN]
The IC50 of the first is 1.8-fold higher: 7 µM for the first, 4 µM for the second. The second is the more potent here.

Tested on: SK-MEL-28
Assay: Growth inhibition of human SK-MEL-28 cells by MTT assay
Assay type: functional, cell-based
Conditions: not given

CCCCCCCCCCCC(=O)Oc1cccc2c1C(=O)C=C(C)C2=O and CCCCCCCCCCCCCCCC(=O)Oc1cccc2c1C(=O)C=C(C)C2=O are within 1.5-fold of each other in IC50: 77 µM for the first, 73 µM for the second.

First: COc1cccc2c1C(=O)C=CC2=O
Second: CCOc1cccc2c1C(=O)C=CC2=O
The IC50 of the first is 3.3-fold higher: 30 µM for the first, 9 µM for the second.

Going from CC(C)=CCC/C(C)=C/COc1cccc2c1C(=O)C=CC2=O to CC(C)=CCC/C(C)=C/COc1cccc2c1C(=O)C=C(C)C2=O, the IC50 falls from over 100 µM to 31 µM. The second is the more potent here.

Compared with C=CCOc1cccc2c1C(=O)C=CC2=O, C=CCOc1cccc2c1C(=O)C=C(C)C2=O is 8-fold lower in IC50: 24 µM for the first, 3 µM for the second.

Going from CCCCCCCCCCCCCCCC(=O)Oc1cccc2c1C(=O)C=CC2=O to CCCCCCCCCCCCCCCCCC(=O)Oc1cccc2c1C(=O)C=CC2=O, the IC50 falls from over 100 µM to 18 µM.

O=C1C=CC(=O)c2c(O)cccc21 [JUGLONE] and CC1=CC(=O)c2c(O)cccc2C1=O [PLUMBAGIN] are within 1.5-fold of each other in IC50: 7 µM for the first, 5 µM for the second.

Tested on: not listed separately
Assay: Growth inhibition of human U373 cells by MTT assay
Assay type: functional, cell-based, U-373MG ATCC
Conditions: U373 MG

Compared with CCCCCCCCCCCC(=O)Oc1cccc2c1C(=O)C=C(C)C2=O, CCCCCCCCCCCCCCCC(=O)Oc1cccc2c1C(=O)C=C(C)C2=O is 3-fold higher in IC50: 16 µM for the first, 48 µM for the second. The first is the more potent here.

First: COc1cccc2c1C(=O)C=CC2=O
Second: CCOc1cccc2c1C(=O)C=CC2=O
The IC50 of the first is 3.2-fold lower: 9 µM for the first, 29 µM for the second. The first is the more potent here.

Going from CC(C)=CCC/C(C)=C/COc1cccc2c1C(=O)C=CC2=O to CC(C)=CCC/C(C)=C/COc1cccc2c1C(=O)C=C(C)C2=O, the IC50 falls from over 100 µM to 59 µM.

Going from C=CCOc1cccc2c1C(=O)C=CC2=O to C=CCOc1cccc2c1C(=O)C=C(C)C2=O, the IC50 falls from 32 µM to 3 µM (11-fold).

Compared with CCCCCCCCCCCCCCCC(=O)Oc1cccc2c1C(=O)C=CC2=O, CCCCCCCCCCCCCCCCCC(=O)Oc1cccc2c1C(=O)C=CC2=O is lower in IC50: over 100 µM for the first, 65 µM for the second.

Compared with O=C1C=CC(=O)c2c(O)cccc21 [JUGLONE], CC1=CC(=O)c2c(O)cccc2C1=O [PLUMBAGIN] is 3.4-fold lower in IC50: 17 µM for the first, 5 µM for the second.

Tested on: not listed separately
Assay: Chemical stability of the compound in MEM and RPMI assessed as compound recovery after 72 hrs in presence of foetal calf serum
Assay type: physicochemical
Conditions: cattle, MEM and RPMI cell culture media with foetal calf serum; read-out: Drug recovery

CCCCCCCCCCCC(=O)Oc1cccc2c1C(=O)C=C(C)C2=O and CCCCCCCCCCCCCCCC(=O)Oc1cccc2c1C(=O)C=C(C)C2=O cannot be ordered by remaining at 72 h: over 95% for the first, over 95% for the second.

CCCCCCCCCCCCCCCC(=O)Oc1cccc2c1C(=O)C=CC2=O and CCCCCCCCCCCCCCCCCC(=O)Oc1cccc2c1C(=O)C=CC2=O cannot be ordered by remaining at 72 h: over 95% for the first, over 95% for the second.

Tested on: U-373MG ATCC
Assay: Cytotoxicity against human U373 cells at 17 uM after 72 hrs by video microscopic analysis
Assay type: functional, cell-based
Conditions: not given

For O=C1C=CC(=O)c2c(O)cccc21 [JUGLONE], the Activity was “Active”.

Tested on: not listed separately
Assay: Growth inhibition of mouse B16F10 cells by MTT assay
Assay type: functional, cell-based
Conditions: B16-F10

Compared with CCCCCCCCCCCC(=O)Oc1cccc2c1C(=O)C=C(C)C2=O, CCCCCCCCCCCCCCCC(=O)Oc1cccc2c1C(=O)C=C(C)C2=O is 7.3-fold higher in IC50: 3 µM for the first, 22 µM for the second. The first is the more potent here.

First: COc1cccc2c1C(=O)C=CC2=O
Second: CCOc1cccc2c1C(=O)C=CC2=O
The IC50 of the first is 2-fold higher: 10 µM for the first, 5 µM for the second. The second is the more potent here.

Compared with CC(C)=CCC/C(C)=C/COc1cccc2c1C(=O)C=CC2=O, CC(C)=CCC/C(C)=C/COc1cccc2c1C(=O)C=C(C)C2=O is lower in IC50: over 100 µM for the first, 30 µM for the second. The second is the more potent here.

Going from C=CCOc1cccc2c1C(=O)C=CC2=O to C=CCOc1cccc2c1C(=O)C=C(C)C2=O, the IC50 falls from 4 µM to 1 µM (4-fold). The second is the more potent here.

Going from CCCCCCCCCCCCCCCC(=O)Oc1cccc2c1C(=O)C=CC2=O to CCCCCCCCCCCCCCCCCC(=O)Oc1cccc2c1C(=O)C=CC2=O, the IC50 falls from 53 µM to 19 µM (2.8-fold). The second is the more potent here.

Compared with O=C1C=CC(=O)c2c(O)cccc21 [JUGLONE], CC1=CC(=O)c2c(O)cccc2C1=O [PLUMBAGIN] is 6-fold lower in IC50: 6 µM for the first, 1 µM for the second. The second is the more potent here.

Tested on: U-373MG ATCC
Assay: Cytotoxicity against human U373 cells at 5 uM after 72 hrs by video microscopic analysis
Assay type: functional, cell-based
Conditions: not given

For CC1=CC(=O)c2c(O)cccc2C1=O [PLUMBAGIN], the Activity was “Active”.

Tested on: MCF7
Assay: Growth inhibition of human MCF7 cells by MTT assay
Assay type: functional, cell-based
Conditions: not given

First: CCCCCCCCCCCC(=O)Oc1cccc2c1C(=O)C=C(C)C2=O
Second: CCCCCCCCCCCCCCCC(=O)Oc1cccc2c1C(=O)C=C(C)C2=O
The IC50 of the first is 2-fold lower: 29 µM for the first, 57 µM for the second.

Going from COc1cccc2c1C(=O)C=CC2=O to CCOc1cccc2c1C(=O)C=CC2=O, the IC50 falls from 39 µM to 24 µM (1.6-fold).

Going from CC(C)=CCC/C(C)=C/COc1cccc2c1C(=O)C=CC2=O to CC(C)=CCC/C(C)=C/COc1cccc2c1C(=O)C=C(C)C2=O, the IC50 falls from over 100 µM to 40 µM.

First: C=CCOc1cccc2c1C(=O)C=CC2=O
Second: C=CCOc1cccc2c1C(=O)C=C(C)C2=O
The IC50 of the first is 7-fold higher: 21 µM for the first, 3 µM for the second.

Going from CCCCCCCCCCCCCCCC(=O)Oc1cccc2c1C(=O)C=CC2=O to CCCCCCCCCCCCCCCCCC(=O)Oc1cccc2c1C(=O)C=CC2=O, the IC50 falls from 86 µM to 30 µM (2.9-fold). The second is the more potent here.

Going from O=C1C=CC(=O)c2c(O)cccc21 [JUGLONE] to CC1=CC(=O)c2c(O)cccc2C1=O [PLUMBAGIN], the IC50 falls from 13 µM to 3 µM (4.3-fold). The second is the more potent here.

Tested on: A549
Assay: Growth inhibition of human A549 cells by MTT assay
Assay type: functional, cell-based
Conditions: not given

CCCCCCCCCCCC(=O)Oc1cccc2c1C(=O)C=C(C)C2=O and CCCCCCCCCCCCCCCC(=O)Oc1cccc2c1C(=O)C=C(C)C2=O are within 1.5-fold of each other in IC50: 22 µM for the first, 30 µM for the second.

First: COc1cccc2c1C(=O)C=CC2=O
Second: CCOc1cccc2c1C(=O)C=CC2=O
The IC50 of the first is 2.1-fold lower: 9 µM for the first, 19 µM for the second.

Compared with CC(C)=CCC/C(C)=C/COc1cccc2c1C(=O)C=CC2=O, CC(C)=CCC/C(C)=C/COc1cccc2c1C(=O)C=C(C)C2=O is 2.9-fold lower in IC50: 67 µM for the first, 23 µM for the second. The second is the more potent here.

Going from C=CCOc1cccc2c1C(=O)C=CC2=O to C=CCOc1cccc2c1C(=O)C=C(C)C2=O, the IC50 falls from 26 µM to 3 µM (8.7-fold). The second is the more potent here.

Compared with CCCCCCCCCCCCCCCC(=O)Oc1cccc2c1C(=O)C=CC2=O, CCCCCCCCCCCCCCCCCC(=O)Oc1cccc2c1C(=O)C=CC2=O is lower in IC50: over 100 µM for the first, 67 µM for the second. The second is the more potent here.

Going from O=C1C=CC(=O)c2c(O)cccc21 [JUGLONE] to CC1=CC(=O)c2c(O)cccc2C1=O [PLUMBAGIN], the IC50 falls from 7 µM to 3 µM (2.3-fold). The second is the more potent here.
